Source: patent EP4733306A1, “NOVEL MODIFIED TRINUCLEOTIDE CAPPING DERIVATIVE, AND MRNA INTO WHICH CAPPING DERIVATIVE IS INTRODUCED” (Elonova Co., Ltd., priority 2023, dated 2025)
Entries after “also recorded” stand apart in the source; their conditions may differ.

Key:
HEK 293 cells = assay: Luciferase (antigen protein) expression from capped Luciferase mRNA transfected into HEK 293 cells, luminescence readout; format: cell-based
Experimental: HEK 293 cells were cultured in a 60 mL culture plate containing DMEM supplemented with 10% FBS and 1% pen/strep. On the day prior to transfection, the cells were detached using trypsin and resuspended in new medium. The cells were seeded into a 96-well plate. On the next day, when the cells reached 70% confluence, the transfection mixture was prepared and transfection was performed.
The purified mRNA was quantified using a nanodrop spectrophotometer, and the transcription yield for each rNTP combination was compared. For cell transfection, 500 ng of each mRNA was collected and mixed with 5 µL of Opti-MEM. Separately, 0.5 µL of Lipofectamine was mixed with 5 µL of Opti-MEM in another tube and incubated at room temperature for 10 minutes. Then, the mRNA and Lipofectamine mixtures were combined in the same tube and incubated for an additional 5 minutes at room temperature. Finally, the transfection mixture was added to the cells and incubated for 24 hours.
After the incubation period, the medium was removed, and the cells were lysed using 50 µL of 1X lysis buffer. The cell lysate was transferred into microcentrifuge tubes. For luciferase luminescence analysis, 100 µL of luciferin substrate was added to each sample in a 96-well white plate. Then, 20 µL of each cell lysate sample was added and mixed by pipetting. Finally, the luminescence of luciferase was recorded using a luminometer instrument.
HEK 293 cells were cultured in a 60 mL culture plate containing DMEM supplemented with 10% FBS and 1% pen/strep. On the day prior to transfection, the cells were detached using trypsin and resuspended in fresh medium. The cells were then seeded in a 96-well plate. On the following day, when the cells reached 70% confluence, the transfection mixture was prepared and transfection was performed.
After the incubation period, the medium was removed, and the cells were lysed using 50 µL of 1X lysis buffer. The cell lysate was transferred into microcentrifuge tubes. For luciferase luminescence analysis, 100 µL of luciferin substrate was taken for each sample in a 96-well white plate. Then, 20 µL of each cell lysate sample was added and mixed by pipetting. Finally, the luminescence of luciferase was recorded using a luminometer instrument.

T7 RNA polymerase = T7 RNA polymerase (Escherichia phage T7, UniProt P00573); assay: In vitro transcription of Luciferase template with T7 RNA polymerase in the presence of the capping material (gel); format: biochemical; details: compared with CleanCap (cap 1 commercial)
Chain of T7 RNA polymerase (P00573 whole entry): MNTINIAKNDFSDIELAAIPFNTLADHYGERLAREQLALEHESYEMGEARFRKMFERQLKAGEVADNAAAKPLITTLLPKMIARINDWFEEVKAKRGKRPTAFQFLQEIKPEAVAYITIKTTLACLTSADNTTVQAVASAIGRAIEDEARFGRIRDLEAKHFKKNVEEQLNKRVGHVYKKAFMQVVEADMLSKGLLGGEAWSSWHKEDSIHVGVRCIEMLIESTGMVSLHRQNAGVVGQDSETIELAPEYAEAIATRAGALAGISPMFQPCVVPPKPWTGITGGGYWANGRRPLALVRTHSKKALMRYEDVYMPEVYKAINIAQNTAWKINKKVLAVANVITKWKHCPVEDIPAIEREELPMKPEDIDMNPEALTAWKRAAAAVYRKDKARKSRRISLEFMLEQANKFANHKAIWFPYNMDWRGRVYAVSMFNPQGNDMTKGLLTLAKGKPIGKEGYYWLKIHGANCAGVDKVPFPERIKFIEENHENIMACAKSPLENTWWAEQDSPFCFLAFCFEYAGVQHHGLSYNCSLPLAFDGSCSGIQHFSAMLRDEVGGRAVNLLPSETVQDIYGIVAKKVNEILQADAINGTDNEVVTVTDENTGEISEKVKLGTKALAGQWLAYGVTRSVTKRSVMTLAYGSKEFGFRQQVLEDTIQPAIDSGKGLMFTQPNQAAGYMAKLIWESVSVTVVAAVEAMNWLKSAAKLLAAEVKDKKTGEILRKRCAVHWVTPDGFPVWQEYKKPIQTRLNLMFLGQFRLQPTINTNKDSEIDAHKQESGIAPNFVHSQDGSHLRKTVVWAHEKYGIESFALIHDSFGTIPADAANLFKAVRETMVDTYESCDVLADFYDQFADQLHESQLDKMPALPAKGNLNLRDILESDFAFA
Experimental: The concentration of the luciferase template was measured using a nanodrop spectrophotometer. For each transcription reaction, 100 ng of template in 1 µL was placed into a microcentrifuge tube. Then, 1.5 µL of 10X transcription buffer (400 mM Tris-HCl, 60 mM MgCl2, 10 mM DTT, 20 mM spermidine) and 1.5 µL of 100 mM DTT were added to the tube. rATP, rCTP, and rUTP were each used (1 µL, 10 mM). For cap-dependent transcription of luciferase, rGTP was used (1 µL, 2.5 mM). The ratio of capping material was maintained at four times higher than rGTP so as to provide mRNA capped at ≥80%. Accordingly, 1 µL of capping material (10 mM) was added. RNase inhibitor (0.5 µL, 40 U/µL) and T7 RNA polymerase (1 µL, 50 U/µL) were added. Nuclease-free water (4.5-5.5 µL) was added to bring the final volume of the reaction to 15 µL. In the case of modified rNTPs, 10 mM stock solutions were prepared and the corresponding derivatives were added in place of rCTP and rUTP. The reaction was incubated at 37°C for 1 hour, and after 1 hour, 1.8 µL of 10X DNase I buffer (10 mM Tris-HCl, 2.5 mM MgCl2, 0.5 mM CaCl2) and 1 µL of DNase I (2 U/µL) were added to the reaction and incubated for an additional 15 minutes at 37°C to remove all DNA templates.

[1] = Luciferase mRNA capped with the analog, compared with Luciferase mRNA introduced with CleanCap (Luc mRNA Cap1)
[2] = Luciferase mRNA capped with the analog, compared with mRNA introduced with ARCA cap (cap 0) and CleanCap (cap 1 commercial), HEK 293

Molecule | antigen protein expression efficiency (HEK 293 cells; [2]) | also measured
CO[C@@H]1[C@H](OP(=O)(O)OC[C@H]2O[C@@H](n3cnc4c(=O)[nH]c(N)nc43)[C@H](O)[C@@H]2O)[C@@H](COP(=O)(O)OP(=O)(O)OP(=O)(O)OC[C@H]2O[C@@H](n3c[n+](Cc4ccccn4)c4c(=O)[nH]c(N)nc43)[C@H](O)[C@@H]2O)O[C@H]1n1cnc2c(N)ncnc21 [PyCap1, Guanosine N7-(pyridin-2-ylmethyl) trinucleotide Cap1 analog] |  | antigen protein expression efficiency (HEK 293 cells; [1]): higher; antigen protein expression efficiency (HEK 293 cells; compared with CleanCap mRNA (Luc mRNA CAP1), in both mRNA using natural rNTPs and mRNA with pseudouridine triphosphate instead of rUTP, HEK 293, 24 hours): higher; antigen protein expression efficiency (HEK 293 cells; compared with CleanCap mRNA (Luc mRNA CAP1), in both mRNA using natural rNTPs and mRNA with pseudouridine triphosphate instead of rUTP, HEK 293, 24 hours, listed as PyCapl): more efficient
CO[C@@H]1[C@H](OP(=O)(O)OC[C@H]2O[C@@H](n3cnc4c(=O)[nH]c(N)nc43)[C@H](O)[C@@H]2O)[C@@H](COP(=O)(O)OP(=O)(O)OP(=O)(O)OC[C@H]2O[C@@H](n3c[n+](Cc4ccccc4)c4c(=O)[nH]c(N)nc43)[C@H](O)[C@@H]2O)O[C@H]1n1cnc2c(N)ncnc21 [BzCap1, Guanosine N7-benzyl trinucleotide Cap1] | higher | antigen protein expression efficiency (HEK 293 cells; [1]): higher; antigen protein expression efficiency (HEK 293 cells; mRNA using natural rNTPs, compared with CleanCap, HEK 293): more efficient
CO[C@@H]1[C@H](OP(=O)(O)OC[C@H]2O[C@@H](n3cnc4c(=O)[nH]c(N)nc43)[C@H](O)[C@@H]2O)[C@@H](COP(=O)(O)OP(=O)(O)OP(=O)(O)OC[C@H]2O[C@@H](n3c[n+](Cc4ccc(Cl)cc4)c4c(=O)[nH]c(N)nc43)[C@H](O)[C@@H]2O)O[C@H]1n1cnc2c(N)ncnc21 [^4-ClBn7GpppAmpG, Guanosine N7-4-Cl-benzyl trinucleotide Cap1] | higher | 
L-Guanosine N7-benzyl trinucleotide Cap1 [^Bn7LGpppAmpG] | higher | 
CO[C@@H]1[C@H](OP(=O)(O)OC[C@H]2O[C@@H](n3cnc4c(=O)[nH]c(N)nc43)[C@H](O)[C@@H]2O)[C@@H](COP(=O)(O)OP(=O)(O)OP(=O)(O)OC[C@H]2O[C@@H](n3c[n+](Cc4ccccc4)c4c(=O)[nH]c(N)nc43)[C@H](O)[C@@H]2O)O[C@H]1n1cnc2c(NCc3ccccc3)ncnc21 [^Bn7Gppp^Bn6AmpG, Guanosine N^7, adenosine N^6-dibenzyl trinucleotide Cap1] | higher | 
CO[C@@H]1[C@H](OP(=O)(O)OC[C@H]2O[C@@H](n3cnc4c(=O)[nH]c(N)nc43)[C@H](O)[C@@H]2O)[C@@H](COP(=O)(O)OP(O)(=S)OP(=O)(O)OC[C@H]2O[C@@H](n3c[n+](Cc4ccccc4)c4c(=O)[nH]c(N)nc43)[C@H](O)[C@@H]2O)O[C@H]1n1cnc2c(N)ncnc21 (single isomer, unassigned) [^Bn7GppspAmpG (D1), Guanosine N7-benzyl β-phosphorothioate trinucleotide Cap1] | higher | 
CO[C@@H]1[C@H](OP(=O)(O)OC[C@H]2O[C@@H](n3cnc4c(=O)[nH]c(N)nc43)[C@H](O)[C@@H]2O)[C@@H](COP(=O)(O)OP(=O)(O)OC[C@H]2O[C@@H](n3c[n+](Cc4ccccc4)c4c(=O)[nH]c(N)nc43)[C@H](O)[C@@H]2O)O[C@H]1n1cnc2c(N)ncnc21 [^Bn7GppAmpG, Guanosine N7-benzyl trinucleotide diphosphate Cap1] | higher | 
CO[C@@H]1[C@H](OP(=O)(O)OC[C@H]2O[C@@H](n3cnc4c(=O)[nH]c(N)nc43)[C@H](O)[C@@H]2O)[C@@H](COP(=O)(O)OP(O)(=S)OP(=O)(O)OC[C@H]2O[C@@H](n3c[n+](Cc4ccc(Cl)cc4)c4c(=O)[nH]c(N)nc43)[C@H](O)[C@@H]2O)O[C@H]1n1cnc2c(N)ncnc21 (single isomer, unassigned) [^4-ClBn7GppspAmpG (D1), Guanosine N7-4-Cl-benzyl β-phosphorothioate trinucleotide Cap1] | higher | 
CO[C@@H]1[C@H](OP(=O)(O)OC[C@H]2O[C@@H](n3cnc4c(=O)[nH]c(N)nc43)[C@H](O)[C@@H]2O)[C@@H](COP(=O)(O)OP(=O)(S)OP(=O)(O)OC[C@H]2O[C@@H](n3c[n+](Cc4ccc(Cl)cc4)c4c([O-])nc(N)nc43)[C@H](O)[C@@H]2O)O[C@H]1n1cnc2c(N)ncnc21 (single isomer, unassigned) [^4-ClBn7GppspAmpG (D2), Guanosine N7-4-Cl-benzyl β-phosphorothioate trinucleotide Cap1] | higher | 
CO[C@@H]1[C@H](OP(=O)(O)OC[C@H]2O[C@@H](n3cnc4c(=O)[nH]c(N)nc43)[C@H](O)[C@@H]2O)[C@@H](COP(=O)(O)OP(=O)(O)OP(=O)(O)OC[C@H]2O[C@@H](n3c[n+](Cc4ccccc4)c4c(=O)[nH]cnc43)[C@H](O)[C@@H]2O)O[C@H]1n1cnc2c(N)ncnc21 [^Bn7IpppAmpG, Inosine N7-benzyl trinucleotide Cap1] | higher | 
CO[C@@H]1[C@H](OP(=O)(O)OC[C@H]2O[C@@H](n3cnc4c(=O)[nH]c(N)nc43)[C@H](O)[C@@H]2O)[C@@H](COP(=O)(O)OP(O)(=S)OP(=O)(O)OC[C@H]2O[C@@H](n3c[n+](Cc4ccccc4)c4c(=O)[nH]c(N)nc43)[C@H](O)[C@@H]2O)O[C@H]1n1cnc2c(N)ncnc21 (single isomer, unassigned) [^Bn7GppspAmpG (D2), Guanosine N7-benzyl β-phosphorothioate trinucleotide Cap1] | higher | 
CO[C@@H]1[C@H](OP(=O)(O)OC[C@H]2O[C@@H](n3cnc4c(=O)[nH]c(N)nc43)[C@H](O)[C@@H]2O)[C@@H](COP(=O)(O)OP(=O)(O)OP(=O)(O)OC[C@H]2O[C@@H](n3c[n+](Cc4cccs4)c4c(=O)[nH]c(N)nc43)[C@H](O)[C@@H]2O)O[C@H]1n1cnc2c(N)ncnc21 [ThioCap1, Guanosine N7-(thiophen-2-ylmethyl) trinucleotide Cap1 analog] |  | antigen protein expression efficiency (HEK 293 cells; [1]): higher; antigen protein expression efficiency (HEK 293 cells; compared with CleanCap mRNA (Luc mRNA CAP1), in both mRNA using natural rNTPs and mRNA with pseudouridine triphosphate instead of rUTP, HEK 293, 24 hours, listed as ThioCapl): more efficient; also recorded: higher; transcription efficiency (T7 RNA polymerase): similar
CO[C@@H]1[C@H](OP(=O)(O)OC[C@H]2O[C@@H](n3cnc4c(=O)[nH]c(N)nc43)[C@H](O)[C@@H]2O)[C@@H](COP(=O)(O)OP(=O)(O)OC[C@H]2O[C@@H](n3c[n+](Cc4ccc(Cl)cc4)c4c(=O)[nH]c(N)nc43)[C@H](O)[C@@H]2O)O[C@H]1n1cnc2c(N)ncnc21 [^4-ClBn7GppAmpG, Guanosine N7-4-Cl-benzyl trinucleotide diphosphate Cap1] | higher | 
